Test results reported in ChEMBL document CHEMBL6134821, “Design, synthesis, and biological evaluation of novel BTK-targeting proteolysis targeting chimeras (PROTACs) with enhanced pharmacokinetic properties” (Eur J Med Chem, 2025).

Legend:
Type in all cases: cell-based
[1] = target: T1, Protein cereblon/Tyrosine-protein kinase BTK (Homo sapiens, UniProt Q06187+Q96SW2); assay: PROTAC activity at CRBN/BTK in human JeKo-1 cells assessed as BTK degradation at 100 nM incubated for 24 hrs by Western blot analysis relative to control
[2] = target: T1, Protein cereblon/Tyrosine-protein kinase BTK; assay: PROTAC activity at CRBN/BTK in human JeKo-1 cells assessed as BTK degradation at 10 nM incubated for 24 hrs by Western blot analysis relative to control
[3] = target: T1, Protein cereblon/Tyrosine-protein kinase BTK; assay: PROTAC activity at CRBN/BTK in human JeKo-1 cells assessed as BTK degradation at 30 nM incubated for 24 hrs by Western blot analysis relative to control

T1 sequence (Q06187 2-659 limits assumed): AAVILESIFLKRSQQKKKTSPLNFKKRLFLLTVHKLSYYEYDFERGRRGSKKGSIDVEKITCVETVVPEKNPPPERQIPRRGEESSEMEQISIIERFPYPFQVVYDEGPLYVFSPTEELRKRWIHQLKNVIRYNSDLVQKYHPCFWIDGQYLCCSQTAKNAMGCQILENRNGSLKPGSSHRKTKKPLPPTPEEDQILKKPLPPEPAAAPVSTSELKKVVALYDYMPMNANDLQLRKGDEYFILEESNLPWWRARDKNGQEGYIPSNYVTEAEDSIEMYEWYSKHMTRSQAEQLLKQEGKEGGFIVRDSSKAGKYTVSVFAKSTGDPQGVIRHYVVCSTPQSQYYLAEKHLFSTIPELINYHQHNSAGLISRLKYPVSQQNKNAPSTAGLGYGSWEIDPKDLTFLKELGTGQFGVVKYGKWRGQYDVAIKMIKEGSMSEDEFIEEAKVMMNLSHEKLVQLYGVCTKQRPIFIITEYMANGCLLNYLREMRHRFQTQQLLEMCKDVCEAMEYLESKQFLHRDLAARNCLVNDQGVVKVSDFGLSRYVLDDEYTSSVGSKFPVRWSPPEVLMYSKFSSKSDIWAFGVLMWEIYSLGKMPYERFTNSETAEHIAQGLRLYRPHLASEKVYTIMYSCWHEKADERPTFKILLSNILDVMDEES
T1 sequence (Q96SW2 whole entry partner): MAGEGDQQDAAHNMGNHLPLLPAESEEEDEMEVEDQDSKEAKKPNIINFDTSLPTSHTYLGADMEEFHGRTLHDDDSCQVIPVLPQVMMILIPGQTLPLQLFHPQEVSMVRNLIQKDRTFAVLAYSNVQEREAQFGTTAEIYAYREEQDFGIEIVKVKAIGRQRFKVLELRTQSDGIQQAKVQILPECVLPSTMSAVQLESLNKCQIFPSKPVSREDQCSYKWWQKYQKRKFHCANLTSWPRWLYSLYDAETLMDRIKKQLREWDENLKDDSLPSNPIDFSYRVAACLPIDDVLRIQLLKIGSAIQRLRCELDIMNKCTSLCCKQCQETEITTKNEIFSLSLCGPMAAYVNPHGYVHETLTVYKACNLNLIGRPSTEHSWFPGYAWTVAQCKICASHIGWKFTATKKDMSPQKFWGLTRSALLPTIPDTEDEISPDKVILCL

| Activity [1] | Activity [2] | Activity [3] | Compound |
| --- | --- | --- | --- |
| 24% | – | – | O=C1CCN(c2cccc(C(=O)N3CCC(CCN4CCC(CC(=O)N[C@H]5CC[C@@H](Nc6ncnc7[nH]cc(C(=O)c8ccc(Oc9ccccc9)cc8Cl)c67)CC5)CC4)CC3)c2)C(=O)N1 |
| 36% | 18% | 32% | O=C1CCC(N2Cc3cc(N4CCC(CCN5CCC(CC(=O)N[C@H]6CC[C@@H](Nc7ncnc8[nH]cc(C(=O)c9ccccc9Cl)c78)CC6)CC5)CC4)c(F)cc3C2=O)C(=O)N1 (stereo partly drawn) |
| 53% | 15% | 36% | O=C1CCC(c2ccc(N3CCC(CCN4CCN(CC(=O)N[C@H]5CC[C@@H](Nc6ncnc7[nH]cc(C(=O)c8ccc(Oc9ccccc9)cc8)c67)CC5)CC4)CC3)cc2)C(=O)N1 (stereo partly drawn) |
| 6% | 4% | 11% | O=C1CCC(c2ccc(N3CCC(CN4CCC(CC(=O)N[C@H]5CC[C@@H](Nc6ncnc7[nH]cc(C(=O)c8ccc(Oc9ccccc9)cc8)c67)CC5)CC4)C3)cc2)C(=O)N1 (stereo partly drawn) |
| 69% | 69% | 79% | O=C1CCC(c2ccc(N3CCC(CCN4CCC(CC(=O)N[C@H]5CC[C@@H](Nc6ncnc7[nH]cc(C(=O)c8ccc(Oc9ccccc9)cc8)c67)CC5)CC4)CC3)cc2)C(=O)N1 (stereo partly drawn) |
| 23% | – | 4% | O=C1CCC(c2ccc(N3CC4(CCN(CC(=O)N[C@H]5CC[C@@H](Nc6ncnc7[nH]cc(C(=O)c8ccc(Oc9ccccc9)cc8)c67)CC5)CC4)C3)cc2)C(=O)N1 (stereo partly drawn) |
| 94% | 80% | 90% | O=C1CCC(N2Cc3cc(N4CCC(CCN5CCC(CC(=O)N6CCC(Nc7ncnc8[nH]cc(C(=O)c9ccc(Oc%10ccccc%10)cc9Cl)c78)CC6)CC5)CC4)c(F)cc3C2=O)C(=O)N1 (stereo not drawn) |
| 98% | 80% | 98% | O=C1CCC(N2Cc3cc(N4CCC(CCN5CCC(CC(=O)N[C@H]6CC[C@H](Nc7ncnc8[nH]cc(C(=O)c9ccc(Oc%10ccccc%10)cc9Cl)c78)CC6)CC5)CC4)c(F)cc3C2=O)C(=O)N1 (stereo partly drawn) |
| 77% | 45% | 62% | O=C1CCC(c2cccc(N3CCC(CCN4CCC(CC(=O)N[C@H]5CC[C@@H](Nc6ncnc7[nH]cc(C(=O)c8ccc(Oc9ccccc9)cc8Cl)c67)CC5)CC4)CC3)c2)C(=O)N1 (stereo partly drawn) |
| 35% | – | 9% | O=C1CCN(c2ccc(C(=O)N3CCC(CCN4CCC(CC(=O)N[C@H]5CC[C@@H](Nc6ncnc7[nH]cc(C(=O)c8ccc(Oc9ccccc9)cc8Cl)c67)CC5)CC4)CC3)cc2)C(=O)N1 |
| 96% | 87% | 95% | O=C1CCC(N2Cc3cc(N4CCC(CCN5CCC(CC(=O)N[C@H]6CC[C@@H](Nc7ncnc8[nH]cc(C(=O)c9ccc(Oc%10ccccc%10)cc9)c78)CC6)CC5)CC4)c(F)cc3C2=O)C(=O)N1 (stereo partly drawn) |
| 39% | – | 15% | O=C1CCC(c2ccc(N3CCC(CCN4CCC(CCN[C@H]5CC[C@@H](Nc6ncnc7[nH]cc(C(=O)c8ccc(Oc9ccccc9)cc8)c67)CC5)CC4)CC3)cc2)C(=O)N1 (stereo partly drawn) |
| 81% | 26% | 60% | Cc1ccc(C(=O)N2CCC(CCN3CCC(CC(=O)N[C@H]4CC[C@@H](Nc5ncnc6[nH]cc(C(=O)c7ccc(Oc8ccccc8)cc7Cl)c56)CC4)CC3)CC2)cc1N1CCC(=O)NC1=O |
| 88% | 77% | 91% | O=C1CCC(N2Cc3cc(N4CCC(CCN5CCC(CC(=O)N[C@@H]6CC[C@H](Nc7ncnc8[nH]cc(C(=O)c9ccc(Oc%10ccccc%10)cc9Cl)c78)C6)CC5)CC4)c(F)cc3C2=O)C(=O)N1 (stereo partly drawn) |
| 74% | 50% | 51% | O=C1CCC(c2ccc(N3CCC(CN4CCC(CC(=O)N[C@H]5CC[C@@H](Nc6ncnc7[nH]cc(C(=O)c8ccc(Oc9ccccc9)cc8)c67)CC5)CC4)CC3)cc2)C(=O)N1 (stereo partly drawn) |
| 23% | 11% | 7% | O=C1CCC(N2Cc3cc(N4CCC(CCN5CCC(CC(=O)N[C@H]6CC[C@@H](Nc7ncnc8[nH]cc(C(=O)c9ccc(F)cc9Cl)c78)CC6)CC5)CC4)c(F)cc3C2=O)C(=O)N1 (stereo partly drawn) |
